Measured values from patent US20170074857A1, “MEDICATION ADHERENCE MONITORING DEVICE” (UNIVERSITY OF FLORIDA RESEARCH FOUNDATION, INC., priority 2014, published 2017).
Like-named read-outs stand apart in the source and are kept apart here.

Assays:
[1] = system: human carboxylesterases and tissue esterases; conditions: metabolized by human carboxyesterases and tissue esterases; cited from earlier work
[2] = cited from earlier work
[3] = orally; FDA Q3C guidance; cited from earlier work
[4] = cited from earlier work; remark: listed apart in the source
[5] = Example 4a: noncompartmental pharmacokinetics of exhaled 2-butanone and 2-pentanone by mGC; type: in vivo, human; conditions: human, in vivo
Excerpt: Test Materials. […] 2-butanol was purchased from Penta Manufacturing Company (Fairfield, N.J.). 2-pentanol and L-carvone were purchased from Sigma-Aldrich (St. Louis, Mo.). […] 2-pentanone was also used as a taggant, but we hypothesized that its inherent volatility would allow exhalation without need for metabolism. L-carvone tastes like spearmint and was used as a flavor mask. All capsules were filled on the day of the experiment.
Subject Enrollment and Protocol. This protocol (20100140) was approved by the Western Institutional Review Board (Olympia, Wash.). Healthy subjects (n=5) aged >18 years of age and of either sex were recruited. Informed, written consent was obtained from all enrolled subjects. The study consisted of a single experimental limb with six replicates per subject. Therefore, for five subjects with six replicated experiments, a total of 30 studies were performed. Subjects were free to eat ad lib prior to participation in the study. At commencement of the experiments, subjects provided a baseline breath sample (designated time 0 min) into the mGC for analysis as described subsequently. Then, subjects orally consumed the previously detailed capsule with 177 mL (6 ounces) of water. Following ingestion, we observed the breath concentration-time relationships of 2-butanone and 2-pentanone by collecting single-breath samples at times 5, 10, 15, 20, 30, 45, and 60 min. After 60 min, the experiment was concluded. After at least one day's respite, subjects returned for replicate experiments on five additional occasions.
2-Butanone and 2-Pentanone Measurement in Human Breath by mGC. Breath specimens were analyzed “real-time” to measure the concentrations of 2-butanone and 2-pentanone using the mGC (Xhale, Inc. Gainesville, Fla.) as previously described. In brief, a mouthpiece (FST®, Intoximeters, Inc., St. Louis, Mo.) was attached to the inlet of the mGC. A 15 mL side-stream sample was aspirated during a single exhalation over 5 s through this inlet port to a room temperature concentrator trap containing 4 mg of Tenax TA (Sigma-Aldrich). The trap temperature was then increased to 130° C. and the volatile components transferred to a 5 m by 0.53 mm internal diameter, metal clad, BAC-1 capillary column (Restek Corp, Bellefonte, Pa.) operated at 55° C. The effluent from the column then flowed to the metal oxide detectors. Separation of the markers from other volatile organic compounds present in the sample (i.e., acetone and isoprene) occurred in approximately 2 min. Data were tabulated and graphically presented over time to determine the concentrations of 2-butanone and 2-pentanone in a given breath specimen. Data are reported in parts-per-billion (ppb) based on molar fractions to account for differing ambient atmospheric pressures and temperature.
Pharmacokinetic Analysis. Analyte breath concentrations reported as ppb were converted to ng/mL by multiplying each concentration by the molecular weight of the respective molecule to allow proper functioning of conventional PK software for noncompartmental analysis (WinNonlin 5.2, Pharsight Corporation, St. Louis, Mo.). Estimates were generated for the following PK parameters (abbreviation, unit): first-order elimination rate constant (Lambda Z, min-1), half-life of elimination (Half-life, min), maximal drug concentration (CMAX, μg/mL), time at maximal drug concentration (TMAX, min), area under concentration versus time curve from zero to the last time point (AUC0-LAST, min*μg/mL), area under concentration versus time curve from zero to infinity (AUC0-∞, min*μg/mL), percentage of area under concentration versus time curve from zero to infinity, which is extrapolated from AUC0-t (% AUC Extrap) and the mean residence time (MRT, min). The area under concentration versus time curve (AUC) was calculated using the linear trapezoidal rule. All values are reported separately for each subject as mean±standard deviation following conversion from ng/mL to ppb. […]

[6] = Example 30: sodium alkyl carbonates, stability and breath ketones after ingestion (FIG. 83)
Description: Isopropanol (1000 mL) was taken lab reactor and added Na metal (6 g). The reaction mixture was heated to 80° C. for 3 h (sodium metal dissolved, clear solution was observed). The reaction mixture was cooled to 0 to 5° C. and purged CO2 (thick suspension was observed after 30 min). Aliquot were drawn after 30 min, concentrated and the solid obtained was analyzed by 1H NMR. The reaction mixture was allowed to stir for additional 30 min. The complete reaction mixture was rinsed with isopropanol (100 mL) and transferred to an R.B flask, concentrated under vacuum to get white solid. The solid obtained after concentration was dried under vacuum at 40° C. at 1 h to get 26 g of white solid.
Sodium isopropoxy carbonate is formed according to this method. The MAC from isopropanol seems to decompose at 60° C. MAC on treatment with water decomposes and white solid was isolated.
The solution was cooled to between 0 and 5° C. and purged with CO2 for 45 minutes. The resulting suspension was concentrated under high vacuum at 40-50° C. to obtain 15 g of white solid. ^1H-NMR: δ ppm (in D2O)=0.89 (triplet, 3H), 1.17 (doublet, 3H), 1.50 (multiplet, 2H), 4.38 (multiplet, 1H) ^13C-NMR: δ ppm (in D2O)=9.48, 19.59, 28.97, 73.96 and 159.61. IR: ν (cm^−1)=1651, 1458, 1369 and 1289 (indicative of an alkyl carboxylate).
Synthesis 2: Six grams of Na metal was dissolved in 100 mL of anhydrous isopropanol at 80° C. […]

[7] = Example 26: breath d6-acetone after 100 mg d8-isopropanol per diem for 5 days (LTQ-LCMS); conditions: in vivo; for Half-life: human, 100 mg
Description: 100 mg aliquots (125 μL) of neat d8-isopropanol were ingested at 24 h intervals for a period of 5 days. Each aliquot was administered in a size 0 LiCap along with ˜200 mL of water.
Each breath sample consisted of a single full breath exhaled directly into the modified ESI source.
Following the ingestion of each aliquot, breath samples were taken every 2 min for the first 30 min following ingestion, every 5 min from 30-60 min after ingestion and every 10 min from 60-120 min. Additional breath samples were collected at ˜9 h and 20 h after ingestion. After the final dose, breath samples were taken once every 24 h for the next 3 days (total study time=8 days).

[8] = not given; remark: listed apart in the source
clinical = conditions: human, exhaled breath, oral, 100 mg
[9] = in vivo
Excerpt: FIG. 79. […] The experimental data was curve fit (parameter estimates±SE) to Equation 1 using a non-linear, least squares (Marquardt-Levenburg) algorithm (SigmaPlot 11, Systat Software, Inc., San Jose, Calif.). […] Note: the logarithmic scale is used on the y axis.
These times are indicated by the short vertical lines on the time axis. […] The y axis is plotted on the log 10 scale.
As it relates to the SMART® Adherence System, the concentration rise (rapid absorption of AEM and conversion to EDIM) and decay of the EDIM with time in breath following oral administration of the AEM is well described by a 1 compartmental (monoexponential) pharmacokinetic (PK) model, reflecting absorption and elimination, which can be described by the following equation (dertived from Miller's Anesthesia, 6th Edition, p 81, 2005, Ed: Ronald D. Miller, Elsevier Churchill Livingstone, Philadelphia, Pa.):
In this example, an initial 1st AEM dose pharmacokinetic (PK) analysis over a period of 0 to a maximum of 24 hours is carried out. […] Note: To ensure an accurate EDIM t1/2a ideally the last time point measured in this 1st dose PK analysis includes the EDIM trough concentration (i.e., the concentration at the time point just prior to the 2nd dose). The AEM could either consist of ordinary or non-ordinary cold isotopes, which generate ordinary and non-ordinary cold isotopic labeled EDIMs. The EDIM levels in breath are measured using the appropriate SMART® device type as disclosed herein.

CCCCOC(=O)c1ccc(O)cc1 [Butyl paraben]
Breath Metabolites [1]: Butanol + POHBA

C[S+](C)[O-] [DMSO, dimethyl sulfoxide]
elimination half life ([2]; humans): 12 to 15 h | permissible daily exposure (PDE) [3]: 50 mg/day

CCOC(=O)c1ccc(O)cc1 [Ethyl paraben]
Breath Metabolites [1]: Ethanol + POHBA

CCCC(C)O (centres unmarked) [Formulation 2-pentanol, 2-pentanol]
LD50 Oral Rat ([4]; oral): 1470 mg/kg

CCCC(C)=O [Formulation 2-pentanone, 2-pentanone]
Half-life ([5]; both sexes, Half-life): 0.395 h | MRT last ([5]; both sexes, MRT0-Last): 0.42 h | MRT last ([5]; both sexes, MRT0-last): 0.423 h | TMAX ([5]; both sexes, TMAX): 0.247 h | TThresh range between replicates ([5]; both): 5 to 7 min | AUC0-8 [5]: 58214 min · ppb | observed CMAX range [5]: 536-2,072 ppb

CC(C)OC(=O)O [MAC from isopropanol, Sodium Isopropyl Carbonate]
temperature at which it seems to decompose [6]: 60 °C

COC(=O)c1ccc(O)cc1 [Methyl paraben]
Breath Metabolites [1]: Methanol + para- hydroxybenzoic acid (POHBA)

CC(C)=O [acetone]
Half-life ([7]; elimination half life in breath, Example 26 / FIG. 74, after d8-IPA): ~6.4 h | Half-life ([7]; half-life of acetone derived from IPA, exhaled breath): ~6.5 h | CMAX assuming dose proportionality (IPA 138 mg orally per day (PDE)): 4131 ppb | time for trough concentrations to reach steady state ([8]; 100 mg IPA daily): 1 to 2 days | breath concentration ([8]; 100 mg IPA for 5 successive days, Type 1 (mGC) device): 2700 to 3000 ppb | maximum breath concentration ([8]; 100 mg IPA oral): 2800 ppb | rise of breath concentration over baseline ([8]; 100 mg IPA oral, 15 and 30 min): greater than 6 × | average elimination half life in humans ([2]; Jones, J Anal Toxicol 2000): 22 h | metabolic/elimination half life in humans ([2]; Jones, J Anal Toxicol 2000): 17 to 27 h | Half-life (clinical): < 10 h | permissible daily exposure (PDE) [3]: 210 mg/day

[2H]C([2H])([2H])C(=O)C([2H])([2H])[2H] [d6-acetone]
Average k [7]: Average k = −0.1079 | elimination half life in breath [7]: 6.4 h | exhaled breath peak height [7]: 62000 peak height | time after a dose up to which deviations from steady state are detectable [7]: up to 65 hours | t½ [7]: t½ ≃ 6.4 h | maximum peak response remaining after 24 h ([7]; 24 h): 6-10% | TMAX ([9]; human): 1.46 h | steady state CMAX ([9]; human): 1819 ppb | CMAX, 1st dose ([9]; human, 100 mg): 1561 ppb | FLost [9]: 0.859 | accumulation factor (AF) [9]: 1.165 | steady state CTrough [9]: 267 ppb | TMAX (100 mg d8-IPA): 3 h | maximum breath concentration (CMAX) (100 mg d8-IPA, assuming breath acetone of 582 ppb): 2,993 ppb

[2H]OC([2H])(C([2H])([2H])[2H])C([2H])([2H])[2H] [d8-IPA, d8-isopropanol]
OrbiTrap peak height (single 100 mg dose): 360,000 peak height | OrbiTrap response relative to background endogenous breath acetone (single 100 mg dose): approximately 5.14 ×

CCOC(=O)C(C)C [ethyl isobutyrate]
LD50 Oral Rat ([4]; oral): 13000 mg/kg

CCCCCCOC(C)=O [hexyl acetate]
LD50 Oral Rat ([4]; oral): 30147 mg/kg

CC(=O)OCCC(C)C [isoaryl (isopentyl) acetate]
LD50 Oral Rat ([4]; oral): 16600 mg/kg

CCC(=O)OC [methyl propionate]
LD50 Oral Rat ([4]; oral): 5000 mg/kg

COC(=O)C(C)C [methylisobutyrate]
LD50 Oral Rat ([4]; oral): 5000 mg/kg

CCCOC(C)=O [propyl acetate]
LD50 Oral Rat ([4]; in vivo, po): 9370 mg/kg
